Laboratory results reported in patent US8895069B2, “Drug delivery system using hyaluronic acid-peptide conjugate micelle” (Postech Academy-Industry Foundation, priority 2011, dated 2014).
Ends that are not written are not given here.

Experiments:
[1] = Appearance / water solubility in aqueous solution; format: physicochemical; settings: PBS, final peptide concentration 1.25 mg/mL
Procedure: The anti-Flt1 peptide (GGNQWFI) (SEQ ID NO: 3) and the hyaluronic acid-peptide conjugate with a lower peptide content as prepared from Preparation Example 3 were dissolved in 4004, of PBS to have a final peptide concentration of 1.25 mg/mL, respectively. The amount of the anti-Flt1 peptide contained in each solution was measured with a changeable UV transilluminator (DUT-260, Core Bio System, Korea) by using 312 nm of light source. The formation of the hyaluronic acid-peptide micelle in an aqueous solution was confirmed by using a transmission electron microscope (TEM) (Hitachi, Tokyo, Japan). For a TEM analysis, 10 μL of the hyaluronic acid-peptide conjugate solution was dropped onto a 300 mesh copper TEM grid with a carbon film and then was dried. The average particle size was calculated out from the diameters obtained from the images of 30 particles.

[2] = system: methacholine airway hyper-responsiveness; test: Methacholine airway hyper-responsiveness (Penh) in OVA/LPS asthma model; format: in vivo, BALB/c mice; settings: 24 hours after the last allergen challenge, intranasal
Procedure: The biological activity of the hyaluronic acid-peptide conjugate with a lower peptide concentration (HA-GGNQWFI) in accordance with Preparation Example 3 was measured through the reaction to methacholine. Specifically, as to the airway hyper-responsiveness (AHR), the laboratory rat (in vivo) was made to keep exercising naturally without being put under anesthesia and the enhanced pause (Penh), the number reflecting the airway obstruction as represented by Mathematical Equation 1 was measured by using plethysmography. In this experimentation was used a non-invasive method wherein the measurement was conducted without correcting or putting the laboratory animal under anesthesia. Penh=[(Te/RT−1)×(PEF/PIF)] [Mathematical Equation 1]
In Mathematical Equation 1, Te represents an expiratory time (seconds), RT represents a relaxation time (seconds), PEF represents a peak expiratory flow […], and PIF represents a peak inspiratory flow (ml/s).
As the laboratory mouse, BALB/c mice (female, 6 week old, 5 per each group) were used. […]
The pulmonary function was measured on the 23th day by using the non-invasive whole body plethysmographs for the mouse that was not put under anesthesia. […] The aerosol was prepared by using an ultrasonic nebulizer and the laboratory mouse was exposed to methacholine for 3 minutes and then the Penh was measured for 5 minutes.

[3] = target: T1, binding between Flt1-Fc and VEGF165 (Homo sapiens, UniProt P17948); test: Inhibition of binding between Flt1-Fc and VEGF165 (chemiluminescence ELISA)
T1 construct: purchased R&D Systems
T1 sequence (P17948 with tags, fused parts or gaps isoform P17948-2 limits assumed): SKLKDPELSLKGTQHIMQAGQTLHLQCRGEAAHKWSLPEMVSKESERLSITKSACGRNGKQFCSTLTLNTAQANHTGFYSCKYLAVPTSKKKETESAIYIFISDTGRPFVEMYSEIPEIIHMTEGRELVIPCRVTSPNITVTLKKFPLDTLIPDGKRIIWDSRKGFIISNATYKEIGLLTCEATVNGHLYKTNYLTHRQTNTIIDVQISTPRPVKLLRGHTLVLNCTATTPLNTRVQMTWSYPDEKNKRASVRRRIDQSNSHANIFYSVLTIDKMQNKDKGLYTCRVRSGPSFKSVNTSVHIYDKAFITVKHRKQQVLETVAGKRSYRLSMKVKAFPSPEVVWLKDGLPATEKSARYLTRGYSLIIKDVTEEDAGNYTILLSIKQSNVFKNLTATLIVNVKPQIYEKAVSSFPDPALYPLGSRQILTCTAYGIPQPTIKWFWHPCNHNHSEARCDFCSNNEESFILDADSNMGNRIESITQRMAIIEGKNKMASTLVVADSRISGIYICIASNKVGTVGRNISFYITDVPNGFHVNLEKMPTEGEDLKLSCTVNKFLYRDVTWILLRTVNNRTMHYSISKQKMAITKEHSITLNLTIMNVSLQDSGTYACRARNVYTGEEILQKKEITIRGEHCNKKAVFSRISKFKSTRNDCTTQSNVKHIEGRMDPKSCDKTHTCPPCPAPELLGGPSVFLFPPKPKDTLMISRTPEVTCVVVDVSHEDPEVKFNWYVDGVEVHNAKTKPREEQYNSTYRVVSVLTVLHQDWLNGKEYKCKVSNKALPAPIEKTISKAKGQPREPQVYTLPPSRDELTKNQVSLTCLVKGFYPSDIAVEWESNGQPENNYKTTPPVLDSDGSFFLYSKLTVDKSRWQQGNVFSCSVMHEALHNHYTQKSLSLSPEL
Procedure: A VEGF165 solution (with a concentration in PBS of 0.5 μg/mL) (R&D System) was put into 96-black well-plate, and reacted overnight at 4° C. to give a VEGF165-coated well. After being washed with PBS, the well was blocked with a blocking buffer (which is a BSA solution with BSA(Sigma-Aldrich) dissolved therein at a concentration of 3 wt % in a PBS buffer solution at pH 7.4) and washed again with PBS (at room temperature for 2 hours). The solutions of the anti-Flt1 peptide (GGNQWFI) (SEQ ID NO: […]) (SEQ ED NO: 3) and 500 ng/mL of Flt1-Fc (R&D systems, Minneapolis, Minn.) in a solution of BSA(Sigma-Aldrich) as dissolved in PBS (pH 7.4) at 1 wt %, or the solution of the hyaluronic acid-peptide conjugate with a lower peptide content of Preparation Example 3 test group (HA-GGNQWFI) (as prepared by conjugating 20 peptides per one HA-TBA molecule) was added to the VEGF165-coated well, and incubated at room temperature for one hour. […] Then, after the well was washed with a PBS comprising 0.05 wt % of Tween 20 three times and washed with a PBS once, the amount of the conjugated Flt1-Fc was measured with BM chemiluminescence ELISA substrate system (Victor 3 luminometer, PerkinElmer, Mass.). […]
The luminescence value of the positive control group without being treated with anti-FR1 peptide was set to be 100% and other data were normalized.

Substance | appearance in the aqueous solution (water solubility) [1] | methacholine airway hyper-responsiveness [2] | inhibition of the bonding between VEGF165 and Flt1-Fc, up to ([3]; dose-dependent, 20-20000 nM peptide, positive control set to 100%) | inhibition of the bonding between VEGF165 and Flt1-Fc ([3]; at 200 nM)
HA-GGNQWFI: hyaluronic acid (MW 100 kDa) conjugated with GGNQWFI, 20 peptides per one molecule of HA-TBA (also: conjugated to hyaluronic acid, about 20 peptides per HA) | became clear | greatly reduced to a level similar to that of the normal control group | about 32% | –
GGNQWFI [anti-Flt1 peptide, GGNQWFI] | became turbid | inferior to the hyaluronic acid-peptide conjugate | – | failed to inhibit
